Measurements reported in PMC7525662, “Preclinical dosimetry models and the prediction of clinical doses of novel positron emission tomography radiotracers” (Scientific Reports, 2020).
Marks after values point to notes of the source that are not given here. Each block holds one compound with its values, some of them ahead of it.

Key:
Set-up in all cases: species or system Sprague–Dawley rats
[1] = OLINDA/EXM predicted clinical doses: adult male phantom, non-normalised τ, FBP; conditions: rat, in vivo
Experimental: (§1) PET studies were reconstructed using filtered-back projection (FBP) and Mediso’s iterative Tera-Tomo 3D reconstruction algorithm with the following settings: 4 iterations, 6 subsets, full detector model, normal regularization, spike filter on, voxel size 0.4 mm and 400‒600 keV energy window. PET data were corrected for randoms, scatter and attenuation. Time-activity curves for each source organ, whole-body and remainder of the body were plotted. […] Residence times (τ) were determined for each radiotracer in source organs, whole-body and remaining (any activity assigned to the whole-body but not assigned to a source organ). Each preclinical source organ’s τ was determined by calculating the area under its respective time-activity curve (activity normalised to the percentage maximum injected dose as a function of time) using the trapezoid method. […] From each individual animal, eight dosimetry models were constructed from all possible combinations of image reconstruction method (FBP or iterative), τ (non-normalised or normalised to human organ masses), and sex of phantom (male or female).

[2] = Residence times normalised to human organ masses, FBP reconstruction; conditions: rat, in vivo
Experimental: as §1, with “female). Supplementary table 1. Scaling (normalisation) factors applied to residence times of PET radiotracers in male Sprague-Dawley rats to predict human adult residence times. […] Stabin et al. 2006 ^4); WB: Whole Body.” for “female).”

[3] = Residence times in rat source organs from whole-body PET, FBP reconstruction; conditions: in vivo, iv
Experimental: as §1, with “Immediately after radiotracer administration, a 240 min emission scan using 4 beds (50% overlap) was obtained using 3-dimensional 1:5 mode and re-binned as follows: 7 × 1 min, 2 × 5 min and 4 × 10 min. Throughout the PET/CT scanning session, animal temperature and respiration rate were monitored and controlled. PET studies” for “PET studies”, “and attenuation. […] Then, PMOD’s contours interpolation tool was used to interpolate ROIs for each organ into a corresponding volume-of-interest (VOI). A static cuboidal VOI was also drawn to include the animal whole-body. Time-activity curves” for “and attenuation. Time-activity curves”

[4] = OLINDA/EXM predicted clinical doses: adult female phantom, normalised τ, FBP; conditions: rat, in vivo
Experimental: as §1, with “female). Supplementary table 8. Predicted clinical absorbed organ doses and whole-body effective doses of PET radiotracers using normalised adult female source organ residence times from filtered backprojection reconstructions.” for “female).”

Effective Dose (mSv/MBq), Average [1]: 5.79E-02 mSv/MBq
Estimated Absorbed Dose of Organ, Average: Adrenals [1]: 1.22E-02 mGy/MBq
Estimated Absorbed Dose of Organ, Average: Brain [1]: 4.36E-03 mGy/MBq
Estimated Absorbed Dose of Organ, Average: Breasts [1]: 8.62E-03 mGy/MBq
Estimated Absorbed Dose of Organ, Average: Gallbladder Wall [1]: 1.32E-02 mGy/MBq
Estimated Absorbed Dose of Organ, Average: Heart Wall [1]: 1.51E-02 mGy/MBq
Estimated Absorbed Dose of Organ, Average: Kidneys [1]: 2.01E-02§ mGy/MBq
Estimated Absorbed Dose of Organ, Average: LLI Wall [1]: 2.39E-01† mGy/MBq
Estimated Absorbed Dose of Organ, Average: Liver [1]: 8.09E-03 mGy/MBq
Estimated Absorbed Dose of Organ, Average: Lungs [1]: 8.07E-03 mGy/MBq
Estimated Absorbed Dose of Organ, Average: Muscle [1]: 1.35E-02 mGy/MBq
Estimated Absorbed Dose of Organ, Average: Osteogenic Cells [1]: 1.76E-02 mGy/MBq
Estimated Absorbed Dose of Organ, Average: Pancreas [1]: 1.32E-02 mGy/MBq
Estimated Absorbed Dose of Organ, Average: Red Marrow [1]: 1.32E-02 mGy/MBq
Estimated Absorbed Dose of Organ, Average: Skin [1]: 9.20E-03 mGy/MBq
Estimated Absorbed Dose of Organ, Average: Small Intestine [1]: 2.21E-02 mGy/MBq
Estimated Absorbed Dose of Organ, Average: Spleen [1]: 1.23E-02 mGy/MBq
Estimated Absorbed Dose of Organ, Average: Stomach Wall [1]: 1.34E-02 mGy/MBq
Estimated Absorbed Dose of Organ, Average: Testes [1]: 1.76E-02 mGy/MBq
Estimated Absorbed Dose of Organ, Average: Thymus [1]: 1.07E-02 mGy/MBq
Estimated Absorbed Dose of Organ, Average: Thyroid [1]: 1.05E-02 mGy/MBq
Estimated Absorbed Dose of Organ, Average: Total Body [1]: 1.38E-02 mGy/MBq
Estimated Absorbed Dose of Organ, Average: ULI Wall [1]: 1.76E-02 mGy/MBq
Estimated Absorbed Dose of Organ, Average: Urinary Bladder Wall [1]: 3.23E-01‡ mGy/MBq
Normalised Residence Time (h), Average: Remaining [2]: 2.12 h
Residence Time (h), Average: Brain [3]: 0.0124 h
Residence Time (h), Average: Heart [3]: 0.0158 h
Residence Time (h), Average: Intestine [3]: 0.372 h
Residence Time (h), Average: Kidneys [3]: 0.0215 h
Residence Time (h), Average: Liver [3]: 0.0249 h
Residence Time (h), Average: Lungs [3]: 0.0155 h
Residence Time (h), Average: Remaining [3]: 2.1 h
Residence Time (h), Average: Urinary Bladder [3]: 0.65 h
Effective Dose (mSv/MBq), Average ± SD [4]: 3.21E-02 mSv/MBq
Estimated Absorbed Dose of Organ, Average: Adrenals [4]: 1.55E-02 mGy/MBq
Estimated Absorbed Dose of Organ, Average: Brain [4]: 1.10E-02 mGy/MBq
Estimated Absorbed Dose of Organ, Average: Breasts [4]: 1.16E-02 mGy/MBq
Estimated Absorbed Dose of Organ, Average: Gallbladder Wall [4]: 1.48E-02 mGy/MBq
Estimated Absorbed Dose of Organ, Average: Heart Wall [4]: 4.52E-02 mGy/MBq
Estimated Absorbed Dose of Organ, Average: Kidneys [4]: 1.70E-02 § mGy/MBq
Estimated Absorbed Dose of Organ, Average: LLI Wall [4]: 1.07E-01 † mGy/MBq
Estimated Absorbed Dose of Organ, Average: Liver [4]: 1.01E-02 mGy/MBq
Estimated Absorbed Dose of Organ, Average: Lungs [4]: 1.82E-02 mGy/MBq
Estimated Absorbed Dose of Organ, Average: Muscle [4]: 1.40E-02 mGy/MBq
Estimated Absorbed Dose of Organ, Average: Osteogenic Cells [4]: 2.19E-02 mGy/MBq
Estimated Absorbed Dose of Organ, Average: Ovaries [4]: 2.42E-02 mGy/MBq
Estimated Absorbed Dose of Organ, Average: Pancreas [4]: 1.63E-02 mGy/MBq
Estimated Absorbed Dose of Organ, Average: Red Marrow [4]: 1.37E-02 mGy/MBq
Estimated Absorbed Dose of Organ, Average: Skin [4]: 1.06E-02 mGy/MBq
Estimated Absorbed Dose of Organ, Average: Small Intestine [4]: 1.83E-02 mGy/MBq
Estimated Absorbed Dose of Organ, Average: Spleen [4]: 1.51E-02 mGy/MBq
Estimated Absorbed Dose of Organ, Average: Stomach Wall [4]: 1.57E-02 mGy/MBq
Estimated Absorbed Dose of Organ, Average: Thymus [4]: 1.48E-02 mGy/MBq
Estimated Absorbed Dose of Organ, Average: Thyroid [4]: 1.27E-02 mGy/MBq
Estimated Absorbed Dose of Organ, Average: Total Body [4]: 1.46E-02 mGy/MBq
Estimated Absorbed Dose of Organ, Average: ULI Wall [4]: 1.75E-02 mGy/MBq
Estimated Absorbed Dose of Organ, Average: Urinary Bladder Wall [4]: 1.18E-01 ‡ mGy/MBq
Estimated Absorbed Dose of Organ, Average: Uterus [4]: 2.28E-02 mGy/MBq
Compound: O=C[C@H]([18F])[C@@H](O)[C@H](O)[C@H](O)CO [FDG, 2-deoxy-2-[^18F]fluoro-D-glucose]

Effective Dose (mSv/MBq), Average [1]: 5.11E-02 mSv/MBq
Estimated Absorbed Dose of Organ, Average: Adrenals [1]: 1.14E-02 mGy/MBq
Estimated Absorbed Dose of Organ, Average: Brain [1]: 2.47E-03 mGy/MBq
Estimated Absorbed Dose of Organ, Average: Breasts [1]: 7.90E-03 mGy/MBq
Estimated Absorbed Dose of Organ, Average: Gallbladder Wall [1]: 1.24E-02 mGy/MBq
Estimated Absorbed Dose of Organ, Average: Heart Wall [1]: 7.37E-03 mGy/MBq
Estimated Absorbed Dose of Organ, Average: Kidneys [1]: 2.41E-02§ mGy/MBq
Estimated Absorbed Dose of Organ, Average: LLI Wall [1]: 1.46E-01 ‡ mGy/MBq
Estimated Absorbed Dose of Organ, Average: Liver [1]: 7.25E-03 mGy/MBq
Estimated Absorbed Dose of Organ, Average: Lungs [1]: 6.07E-03 mGy/MBq
Estimated Absorbed Dose of Organ, Average: Muscle [1]: 1.31E-02 mGy/MBq
Estimated Absorbed Dose of Organ, Average: Osteogenic Cells [1]: 1.64E-02 mGy/MBq
Estimated Absorbed Dose of Organ, Average: Pancreas [1]: 1.22E-02 mGy/MBq
Estimated Absorbed Dose of Organ, Average: Red Marrow [1]: 1.21E-02 mGy/MBq
Estimated Absorbed Dose of Organ, Average: Skin [1]: 8.75E-03 mGy/MBq
Estimated Absorbed Dose of Organ, Average: Small Intestine [1]: 1.97E-02 mGy/MBq
Estimated Absorbed Dose of Organ, Average: Spleen [1]: 1.15E-02 mGy/MBq
Estimated Absorbed Dose of Organ, Average: Stomach Wall [1]: 1.21E-02 mGy/MBq
Estimated Absorbed Dose of Organ, Average: Testes [1]: 1.85E-02 mGy/MBq
Estimated Absorbed Dose of Organ, Average: Thymus [1]: 9.71E-03 mGy/MBq
Estimated Absorbed Dose of Organ, Average: Thyroid [1]: 9.77E-03 mGy/MBq
Estimated Absorbed Dose of Organ, Average: Total Body [1]: 1.30E-02 mGy/MBq
Estimated Absorbed Dose of Organ, Average: ULI Wall [1]: 1.65E-02 mGy/MBq
Estimated Absorbed Dose of Organ, Average: Urinary Bladder Wall [1]: 4.35E-01 † mGy/MBq
Normalised Residence Time (h), Average: Remaining [2]: 1.98 h
Residence Time (h), Average: Brain [3]: 0.00193 h
Residence Time (h), Average: Heart [3]: 0.00279 h
Residence Time (h), Average: Intestine [3]: 0.209 h
Residence Time (h), Average: Kidneys [3]: 0.029 h
Residence Time (h), Average: Liver [3]: 0.0207 h
Residence Time (h), Average: Lungs [3]: 0.00664 h
Residence Time (h), Average: Remaining [3]: 1.96 h
Residence Time (h), Average: Urinary Bladder [3]: 0.892 h
Effective Dose (mSv/MBq), Average ± SD [4]: 2.71E-02 mSv/MBq
Estimated Absorbed Dose of Organ, Average: Adrenals [4]: 1.41E-02 mGy/MBq
Estimated Absorbed Dose of Organ, Average: Brain [4]: 4.10E-03 mGy/MBq
Estimated Absorbed Dose of Organ, Average: Breasts [4]: 1.02E-02 mGy/MBq
Estimated Absorbed Dose of Organ, Average: Gallbladder Wall [4]: 1.36E-02 mGy/MBq
Estimated Absorbed Dose of Organ, Average: Heart Wall [4]: 1.39E-02 mGy/MBq
Estimated Absorbed Dose of Organ, Average: Kidneys [4]: 1.95E-02 § mGy/MBq
Estimated Absorbed Dose of Organ, Average: LLI Wall [4]: 6.76E-02 ‡ mGy/MBq
Estimated Absorbed Dose of Organ, Average: Liver [4]: 8.65E-03 mGy/MBq
Estimated Absorbed Dose of Organ, Average: Lungs [4]: 1.10E-02 mGy/MBq
Estimated Absorbed Dose of Organ, Average: Muscle [4]: 1.29E-02 mGy/MBq
Estimated Absorbed Dose of Organ, Average: Osteogenic Cells [4]: 2.00E-02 mGy/MBq
Estimated Absorbed Dose of Organ, Average: Ovaries [4]: 2.14E-02 mGy/MBq
Estimated Absorbed Dose of Organ, Average: Pancreas [4]: 1.47E-02 mGy/MBq
Estimated Absorbed Dose of Organ, Average: Red Marrow [4]: 1.23E-02 mGy/MBq
Estimated Absorbed Dose of Organ, Average: Skin [4]: 9.76E-03 mGy/MBq
Estimated Absorbed Dose of Organ, Average: Small Intestine [4]: 1.64E-02 mGy/MBq
Estimated Absorbed Dose of Organ, Average: Spleen [4]: 1.38E-02 mGy/MBq
Estimated Absorbed Dose of Organ, Average: Stomach Wall [4]: 1.41E-02 mGy/MBq
Estimated Absorbed Dose of Organ, Average: Thymus [4]: 1.28E-02 mGy/MBq
Estimated Absorbed Dose of Organ, Average: Thyroid [4]: 1.16E-02 mGy/MBq
Estimated Absorbed Dose of Organ, Average: Total Body [4]: 1.31E-02 mGy/MBq
Estimated Absorbed Dose of Organ, Average: ULI Wall [4]: 1.62E-02 mGy/MBq
Estimated Absorbed Dose of Organ, Average: Urinary Bladder Wall [4]: 1.54E-01 † mGy/MBq
Estimated Absorbed Dose of Organ, Average: Uterus [4]: 2.28E-02 mGy/MBq
Compound: NOTA-RGDfK [existing Al^18F-labelled NOTA-RGDfK peptide PET radiotracer; precursor NOTA-RGDfK (1)]
